A short description of the assay: Body weight in MBP EAE rat model. The conditions noted are these: Group 2F; at study termination. It counts as in vivo, Lewis rats. The text has this:
Body weight loss can be the first sign of disease initiation, while a sudden marked weight gain tends to accompany remission of EAE symptoms. Therefore, determination of individual body weights of animals was made shortly before EAE induction on study day 0 (study commencement) and thereafter on a daily basis throughout the entire 21-day observation period.
This working EXAMPLE discloses the weight change of rats subjected to the experiment described in Example 7. Body weight loss can be the first sign of disease initiation, while a sudden marked weight gain tends to accompany remission of EAE symptoms. Therefore, determination of individual body weights of animals was made shortly before EAE induction on study day 0 (study commencement) and on a daily basis throughout the 21-day observation period.

For `C[C@@H]1C[C@H]2[C@@H]3CCC4=CC(=O)C=C[C@]4(C)[C@@]3(F)[C@@H](O)C[C@]2(C)[C@@]1(O)C(=O)CO` [Dexamethasone], the “mean body weight lost” value was determined as 2%.

These data come from US20120263764A1, “COMPOSITIONS AND METHODS FOR INHIBITING AND/OR MODULATING EFFECTOR T-CELLS INVOLVED IN INFLAMMATORY NEURODEGENERATIVE DISEASE” (Revalesio Corporation, priority 2011, published 2012).
